The Km is the substrate concentration at which the rate is half of its maximum.

The target in one series is T1, PduS (Citrobacter freundii, UniProt B1VB77).
T1 construct: full length, N-terminal hexa-His tag (pET14b, pJP024; template pAR3114), E. coli BL21(DE3)pLysS; FMN and two [4Fe-4S] when purified anaerobically
T1 sequence (B1VB77 1-451): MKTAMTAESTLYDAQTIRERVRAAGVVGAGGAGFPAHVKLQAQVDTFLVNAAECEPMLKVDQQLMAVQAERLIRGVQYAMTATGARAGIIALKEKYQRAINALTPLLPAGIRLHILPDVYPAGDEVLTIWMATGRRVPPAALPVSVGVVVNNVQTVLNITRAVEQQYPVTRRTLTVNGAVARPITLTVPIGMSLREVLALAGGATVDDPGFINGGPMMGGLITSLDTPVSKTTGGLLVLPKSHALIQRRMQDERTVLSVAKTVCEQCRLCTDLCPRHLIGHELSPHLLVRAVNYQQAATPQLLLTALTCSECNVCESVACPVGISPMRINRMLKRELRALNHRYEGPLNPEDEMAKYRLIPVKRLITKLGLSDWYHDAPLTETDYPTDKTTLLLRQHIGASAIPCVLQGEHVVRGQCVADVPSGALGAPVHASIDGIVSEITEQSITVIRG
Put plainly: heat release of bound flavin, RP-HPLC-MS against FMN and FAD standards. It is filed as binding. The settings on record: non-covalently bound, co-purified.

Substrate in the series “purified protein”: NC(=O)C1=CN([C@@H]2O[C@H](COP(=O)(O)OP(=O)(O)OC[C@H]3O[C@@H](n4cnc5c(N)ncnc54)[C@H](O)[C@@H]3O)[C@@H](O)[C@H]2O)C=CC1
Kind of series: purified protein. It is filed as biochemical, Citrobacter freundii. The settings on record: cob(III)alamin as co-substrate, 20 mM Tris-HCl pH 8.0, 37 °C, anaerobic.

Consider `Cc1cc2nc3c(=O)[nH]c(=O)nc-3n(C[C@H](O)[C@H](O)[C@H](O)COP(=O)(O)O)c2cc1C` [FMN], for which the “heat release of bound flavin, RP-HPLC-MS against FMN and FAD standards” value on PduS is listed as “flavin extracted from PduS was found to have a retention time identical to authentic FMN”.

B1: PduS (Citrobacter freundii) (protein)
chain: MKTAMTAESTLYDAQTIRERVRAAGVVGAGGAGFPAHVKLQAQVDTFLVNAAECEPMLKVDQQLMAVQAERLIRGVQYAMTATGARAGIIALKEKYQRAINALTPLLPAGIRLHILPDVYPAGDEVLTIWMATGRRVPPAALPVSVGVVVNNVQTVLNITRAVEQQYPVTRRTLTVNGAVARPITLTVPIGMSLREVLALAGGATVDDPGFINGGPMMGGLITSLDTPVSKTTGGLLVLPKSHALIQRRMQDERTVLSVAKTVCEQCRLCTDLCPRHLIGHELSPHLLVRAVNYQQAATPQLLLTALTCSECNVCESVACPVGISPMRINRMLKRELRALNHRYEGPLNPEDEMAKYRLIPVKRLITKLGLSDWYHDAPLTETDYPTDKTTLLLRQHIGASAIPCVLQGEHVVRGQCVADVPSGALGAPVHASIDGIVSEITEQSITVIRG
notes: full length, N-terminal hexa-His tag (pET14b, pJP024; template pAR3114), E. coli BL21(DE3)pLysS; FMN and two [4Fe-4S] when purified anaerobically
Take B1: the Km in “purified protein” came to 24.7 µM.

Source of the values: paper PMC2982820, “Characterisation of PduS, the pdu Metabolosome Corrin Reductase, and Evidence of Substructural Organisation within the Bacterial Microcompartment” (PLoS ONE, 2010).
